Patent US7855309B2, “Pesticide benzyloxy- and phenetyl-substituted phenyl-amidine derivatives” (Bayer CropScience AG, priority 2005, dated 2010)
Where two headings read alike, the source gives them in different places.

What was measured:
[1] = test system: Heliothis viresens; test: In vivo protective test on Heliothis virescens (HELIVI); design: species or system Heliotis virescens; conditions: soybean leaf sections, eggs
Experimental: In Vivo Protective Test on Heliothis viresens (HELIVI)
(§1) Solvent: 78 parts by weight acetone
• 1.5 parts by weight dimethylformamide Wetting agent: 0.5 parts by weight alkylarylpolyglcolether
(§2) To produce a suitable preparation of active compound, 1 part by weight of active compound is mixed with the stated amount of solvent and emulsifier, and the concentrate is diluted with emulsifier-containing water to the desired concentration.
Soybean (Glycine max.) leaf sections are sprayed with a preparation of the active ingredient of the desired concentration. Once dry, the leaf sections are infested with eggs of cotton bollworm (Heliotis virescens).
After the specified period of time, mortality in % is determined. 100% means that all eggs have been killed and 0% means that none of the eggs have been killed.

[2] = logP by HPLC on reversed-phase column (EEC Directive 79/831 Annex V.A8); format: physicochemical; conditions: for chromatographic logP: reversed-phase HPLC column (C18)
Experimental: Temperature: 40° C.; Mobile phases: 0.1% aqueous formic acid and acetonitrile; linear gradient from 10% acetonitrile to 90% acetonitrile.
Calibration was carried out using unbranched alkan-2-ones (comprising 3 to 16 carbon atoms) with known logP values (determination of the logP values by the retention times using linear interpolation between two successive alkanones).

[3] = test system: Aedes aegypti larvae; test: In vivo protective test on Aedes aegypti (AEDSAE U)
Experimental: In Vivo Protective Test on Aedes Aegypti (AEDSAE U)
Solvent: 1% N-methylpyrrolidone (NMP)
• 1% diacetonealcohol Dye: brillantsulfoflavin for staining water
To produce a suitable preparation of the active compound, the active compound is mixed with the stated amount of solvent, and the concentrate is diluted with staining water to the desired concentration.
Aedes aegypti larvae are pipetted with a preparation of active ingredient of the desired concentration.
After the specified period of time, mortality in % is determined. 100% means that all larvae have been killed, a 0% means that none of the larvae have been killed.

[4] = test system: Myzus persicae; test: In vivo protective test on Myzus persicae (MYZUPE); conditions: Chinese cabbage leaf-disks, all instars, spray
Experimental: In Vivo Protective Test on Myzus persicae (MYZUPE)
as §1
• 1.5 parts by weight dimethylformamide Dye: 0.5 parts by weight alkylarylpolyglcolether
as §2
Chinese cabbage (Brassica pekinesis) leaf-disks infected with all instars of the green peach aphid (Myzus persicae), are sprayed with a preparation of the active ingredient at the desired concentration.
After the specified period of time, mortality in % is determined. 100% means that all aphids have been killed; 0% means that none of the aphids have been killed.

[5] = HPLC, C18, 40° C., 0.1% aqueous formic acid and acetonitrile

SMILES | log P [2, 5] | activity (mortality) [4] | other results
CCN(C)C=Nc1cc(C)c(OCc2cccc(Cl)c2)cc1C [Compound 7] | 2.13 | – | activity (mortality) [1]: good activity; activity (mortality) [3]: good activity
CCN(C)C=Nc1cc(C)c(OCc2cc(Cl)cc(C(F)(F)F)c2)cc1C [Compound 19] | 2.54 | good activity | –
CCN(C)C=Nc1cc(C)c(OCc2cccc(OCC(F)(F)F)c2)cc1C [Compound 49] | 2.21 | good activity | –
CCN(C)C=Nc1cc(C)c(OCc2ccccc2SC(F)(F)F)cc1C [Compound 68] | 2.36 | good activity | –
CCN(C)C=Nc1cc(C)c(OCc2ccc(C(F)(F)F)cc2)cc1C [Compound 14] | 2.28 | – | activity (mortality) [3]: good activity
CCN(C)C=Nc1cc(C)c(OCc2ccc(Oc3ccc(SC)cc3)cc2)cc1C [Compound 72] | 2.74 | good activity | –
CCN(C)C=Nc1cc(C)c(OC(C)c2ccc(F)cc2)cc1C (centres unmarked) [Compound 6] | 2.08 | – | activity (mortality) [1]: good activity; activity (mortality) [3]: good activity
CCN(C)C=Nc1cc(C)c(OCc2cccc(Br)c2)cc1C [Compound 65] | 2.18 | good activity | –
CCN(C)C=Nc1cc(C)c(OCc2ccc(Cl)cc2C(F)(F)F)cc1C [Compound 18] | 2.52 | good activity | activity (mortality) [3]: good activity
CCN(C)C=Nc1cc(C)c(OCc2ccccc2OC(F)(F)F)cc1C [Compound 16] | 2.28 | good activity | –
CCN(C)C=Nc1cc(C)c(OCc2cccc(SC(F)(F)F)c2)cc1C [Compound 69] | 2.45 | good activity | –
CCN(C)C=Nc1cc(C)c(OC(C)c2ccccc2Cl)cc1C (centres unmarked) [Compound 29] | 2.24 | good activity | activity (mortality) [3]: good activity
CCN(C)C=Nc1cc(C)c(OCc2cc(C(F)(F)F)ccc2Cl)cc1C [Compound 20] | 2.44 | good activity | –
CCN(C)C=Nc1cc(C)c(OCc2ccc(Cl)cc2)cc1C [Compound 1] | 2.14 | – | activity (mortality) [3]: good activity
CCN(C)C=Nc1cc(C)c(OCc2ccc(Cl)c(Cl)c2)cc1C [Compound 13] | 2.38 | good activity | activity (mortality) [3]: good activity
CCN(C)C=Nc1cc(C)c(OCc2ccc(C(F)(F)F)cc2Cl)cc1C [Compound 25] | 2.47 | good activity | –
CCN(C)/C=N/c1cc(C)c(OCc2cccc(C(F)(F)F)c2)cc1C [Compound 9, N′-(2,5-dimethyl-4-{[3-(trifluoromethyl)benzyl]oxy}phenyl)-N-ethyl-N-methylimidoformamide] | – | – | chromatographic logP ([2]; pH 2.3, read-out: log P (pH 2.3)): 2.24; chromatographic logP ([2]; HPLC, C18, 40° C., 0.1% aqueous formic acid and acetonitrile, read-out: log P): 2.24; activity (mortality) [3]: good activity
CCN(C)C=Nc1cc(C)c(OC(C)c2cccc(Cl)c2)cc1C (centres unmarked) [Compound 30] | 2.23 | good activity | –
CCN(C)C=Nc1cc(C)c(OCc2ccc(Oc3ccc(F)cc3)cc2)cc1C [Compound 52] | 2.8 | good activity | –
CCN(C)C=Nc1cc(C)c(OCc2cc(C)ccc2C)cc1C [Compound 56] | 2.23 | good activity | –
CCN(C)C=Nc1cc(C)c(OCc2ccc(Oc3ccc(Cl)cc3)cc2)cc1C [Compound 73] | 2.8 | good activity | –
CCN(C)C=Nc1cc(C)c(CCc2cc(C(F)(F)F)cc(C(F)(F)F)c2)cc1C [Compound 35] | 2.79 | good activity | –
CCN(C)C=Nc1cc(C)c(OCc2ccc(C)c(C)c2)cc1C [Compound 64] | 2.23 | good activity | –

SMILES | log P [2, 5] | activity (mortality) [4] | other results
CCN(C)C=Nc1cc(C)c(OC(C)c2c(Cl)cccc2Cl)cc1C (centres unmarked) [Compound 4] | 2.52 | – | activity (mortality) [3]: good activity
CCN(C)C=Nc1cc(C)c(OCc2c(Cl)cccc2Cl)cc1C [Compound 3] | 2.05 | good activity | activity (mortality) [3]: good activity
Cc1cc(OCc2ccc(OC(F)F)cc2)c(C)cc1N=CN1CCCCC1 [Compound 125] | 2.16 | – | –
CCN(C)C=Nc1cc(C)c(OCc2ccc(C#N)cc2)cc1C [Compound 10] | 1.7 | – | –
CCN(C)C=Nc1cc(C)c(OCc2ccc(C(C)(C)C)cc2)cc1C [Compound 8] | 2.67 | – | –
CCN(C)C=Nc1cc(C)c(OCc2cc(C)c(C)cc2Cl)cc1C [Compound 47] | 2.42 | – | –
CCN(C)C=Nc1cc(C)c(OC(C)c2ccc(Cl)cc2)cc1C (centres unmarked) [Compound 31] | 2.26 | good activity | –
CCN(C)C=Nc1cc(C)c(CCc2ccc(OC)cc2)cc1C [Compound 39] | 2.04 | – | –
CCN(C)C=Nc1cc(C)c(OCc2cccc(C)c2)cc1C [Compound 57] | 2.11 | – | –
CCN(C)C=Nc1cc(C)c(CCc2cccc(C(F)(F)F)c2)cc1C [Compound 43] | 2.41 | – | –
Cc1ccc(COc2cc(C)c(N=CN3CCCCC3)cc2C)cc1Cl [Compound 117] | 2.39 | – | –
COc1cc(COc2cc(C)c(N=CN3CCCCC3)cc2C)ccc1F [Compound 121] | 2.06 | – | –
Cc1cc(OCc2cccc(SC(F)(F)F)c2)c(C)cc1N=CN1CCCCC1 [Compound 114] | 2.48 | – | –
CCN(C)C=Nc1cc(C)c(OCc2ccc(SC)cc2)cc1C [Compound 84] | 2.16 | – | –
Cc1cc(OCc2ccc(Cl)c(Cl)c2)c(C)cc1N=CN1CCCCC1 [Compound 107] | 2.45 | – | –
CCN(C)C=Nc1cc(C)c(OCc2cc(C(F)(F)F)cc(C(F)(F)F)c2)cc1C [Compound 21] | 2.62 | – | –
Cc1cc(OCc2cccc(OC(F)(F)F)c2)c(C)cc1N=CN1CCCCC1 [Compound 113] | 2.39 | – | –
Cc1cc(OC(C)c2ccccc2Cl)c(C)cc1N=CN1CCCCC1 (racemic) [Compound 130] | 2.36 | – | –
CCN(C)C=Nc1cc(C)c(CCc2ccccc2Cl)cc1C [Compound 37] | 2.26 | – | –
CCN(C)C=Nc1cc(C)c(OCc2ccc(F)cc2)cc1C [Compound 2] | 1.99 | – | –
Cc1cc(OCc2ccccc2OC(F)(F)F)c(C)cc1N=CN1CCCCC1 [Compound 111] | 2.33 | – | –
CCN(C)C=Nc1cc(C)c(OCc2cccc(C)c2C)cc1C [Compound 89] | 2.29 | – | –
CCN(C)C=Nc1cc(C)c(OCc2c(F)cccc2Cl)cc1C [Compound 61] | 2.09 | good activity | –
